Test results as given in patent publication US6710190B1, “3-heteroarylalkyl substituted gaba analogs” (Warner-Lambert Company, priority 1999, dated 2004).
Like-named read-outs stand apart in the source and are kept apart here.

How the values were obtained:
[1] = system: sound-induced tonic seizures in DBA/2 mice; assay: DBA2 mouse model: prevention of audiogenic seizures in DBA/2 mice; assay type: in vivo; design: concentration or dose not given beside the values; settings: for DBA2 Mouse Model % Protect (1h): 1h after oral dosing; for DBA2 Mouse Model % Protect (2h): 2h after oral dosing
Method: All procedures were carried out in compliance with the NIH Guide for the Care and Use of Laboratory Animals under a protocol approved by the Parke-Davis Animal Use Committee. Male DBA/2 mice, 3 to 4 weeks old, were obtained from Jackson Laboratories, Bar Harbour, Me. Immediately before anticonvulsant testing, mice were placed upon a wire mesh, 4 inches square suspended from a steel rod. The square was slowly inverted through 180 degrees and mice observed for 30 seconds. Any mouse falling from the wire mesh was scored as ataxic.
Mice were placed into an enclosed acrylic plastic chamber (21 cm height, approximately 30 cm diameter) with a high-frequency speaker (4 cm diameter) in the center of the top lid. An audio signal generator (Protek model B-180) was used to produce a continuous sinusoidal tone that was swept linearly in frequency between 8 kHz and 16 kHz once each 10 msec. The average sound pressure level (SPL) during stimulation was approximately 100 dB at the floor of the chamber. Mice were placed within the chamber and allowed to acclimatize for 1 minute. DBA/2 mice in the vehicle-treated group responded to the sound stimulus (applied until tonic extension occurred, or for a maximum of 60 seconds) with a characteristic seizure sequence consisting of wild running followed by clonic seizures, and later by tonic extension, and finally by respiratory arrest and death in 80% or more of the mice. In vehicle-treated mice, the entire sequence of seizures to respiratory arrest lasts approximately 15 to 20 seconds.
The incidence of all the seizure phases in the drug-treated and vehicle-treated mice was recorded, and the occurrence of tonic seizures were used for calculating anticonvulsant ED50 values by probit analysis. Mice were used only once for testing at each dose point. […] All drugs in the present study were dissolved in distilled water and given by oral gavage in a volume of 10 mL/kg of body weight. compounds that are insoluble will be suspended in 1% carboxymethocellulose. Doses are expressed as weight of the active drug moiety.

[2] = system: carrageenan-induced thermal hyperalgesia in the rat; assay: Pain model: carrageenan-induced thermal hyperalgesia in the rat (plantar test); assay type: in vivo; settings: for Pain Model % MPE 1 h: 1 h after oral administration; for Pain Model % MPE 2h: 2 h after oral administration
Method: Male Sprague-Dawley rats (180-250 g) were obtained from Bantin and Kingman, (Hull, U.K.). Animals were housed in groups of 6 to 10 under a 12 hour light/dark cycle (lights on at 7 hours, 0 minutes) with food and water ad libitum.
Thermal hyperalgesia was assessed using the rat plantar test (Ugo Basile, Italy) following a modified method of Hargreaves, et al., 1988. Rats were habituated to the apparatus which consisted of three individual perspex boxes on an elevated glass table. A mobile radiant heat source located under the table was focused onto the desired paw and paw withdrawal latencies (PWL) recorded. PWL were taken 3 times for both hind paws of each animal, the mean of which represented baselines for right and left hind paws. At least 5 minutes were allowed between each PWL for an animal. The apparatus was calibrated to give a PWL of approximately 10 seconds. There was an automatic cutoff point of 20 seconds to prevent tissue damage. After baseline PWLs were determined, animals received an intraplantar injection of carrageenan (100 μL of 20 mg/mL) into the right hind paw. PWLs were reassessed following the same protocol as above 2-hour post-carrageenan (this time point represented the start of peak hyperalgesia) to ascertain that hyperalgesia had developed. Test compounds were administered orally (in a volume of 1 mL/kg) at 2.5 hours after carrageenan. PWLs were reassessed at various times after drug administration.

[3] = target: T1, α2δ subunit derived from porcine brain tissue (Sus scrofa, UniProt A0A287BIN3); assay: [3H]gabapentin radioligand binding assay (α2δ assay)
T1 construct: the α2δ subunit derived from porcine brain tissue was used; from tissue; host or cells: porcine brain tissue
T1 sequence (A0A287BIN3 25-1109): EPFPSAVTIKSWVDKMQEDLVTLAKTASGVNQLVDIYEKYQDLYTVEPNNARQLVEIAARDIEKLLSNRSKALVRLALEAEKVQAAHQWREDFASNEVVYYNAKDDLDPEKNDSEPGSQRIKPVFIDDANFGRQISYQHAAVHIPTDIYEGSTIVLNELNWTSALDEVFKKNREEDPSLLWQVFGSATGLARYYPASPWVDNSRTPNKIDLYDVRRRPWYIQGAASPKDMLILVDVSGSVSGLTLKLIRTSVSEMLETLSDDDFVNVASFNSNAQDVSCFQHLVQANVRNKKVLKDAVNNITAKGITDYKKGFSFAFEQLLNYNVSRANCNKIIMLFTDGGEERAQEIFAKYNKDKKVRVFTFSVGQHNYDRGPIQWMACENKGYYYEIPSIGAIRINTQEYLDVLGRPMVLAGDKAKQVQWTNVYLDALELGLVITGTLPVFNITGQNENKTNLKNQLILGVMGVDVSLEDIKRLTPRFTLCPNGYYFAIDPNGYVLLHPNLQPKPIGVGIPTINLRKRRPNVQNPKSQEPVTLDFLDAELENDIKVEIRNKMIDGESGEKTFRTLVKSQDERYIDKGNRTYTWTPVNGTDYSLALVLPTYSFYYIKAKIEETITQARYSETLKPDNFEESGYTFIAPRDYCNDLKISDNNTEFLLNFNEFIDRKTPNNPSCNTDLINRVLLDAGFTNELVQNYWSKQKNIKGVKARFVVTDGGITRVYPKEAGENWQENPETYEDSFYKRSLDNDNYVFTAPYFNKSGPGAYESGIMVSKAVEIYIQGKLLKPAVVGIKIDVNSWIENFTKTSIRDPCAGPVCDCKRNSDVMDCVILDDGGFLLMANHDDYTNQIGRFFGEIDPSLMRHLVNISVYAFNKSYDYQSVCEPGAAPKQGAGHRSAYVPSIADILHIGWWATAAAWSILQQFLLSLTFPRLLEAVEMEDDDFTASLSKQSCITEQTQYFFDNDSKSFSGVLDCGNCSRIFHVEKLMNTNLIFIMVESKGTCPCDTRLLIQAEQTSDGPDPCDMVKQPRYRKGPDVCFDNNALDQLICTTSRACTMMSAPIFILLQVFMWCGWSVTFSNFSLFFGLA

SMILES | DBA2 Mouse Model % Protect (1h) [1] | DBA2 Mouse Model % Protect (2h) [1] | Pain Model % MPE 1 h [2] | Pain Model % MPE 2h [2] | IC50 [3] | IC50 ([3]; read-out: α2δ Assay IC50)
NCC(CC(=O)O)Cc1ccco1 (stereo not shown) | 0% | 20% | 61.6% | 24.9% | 421 nM | 
NCC(CC(=O)O)Cc1ccsc1 (stereo not shown) | 40% | 60% |  |  |  | 831 nM
NCC(CC(=O)O)Cc1cccs1 (stereo not shown) | 20% | 40% | 31.9% | 18.1% |  | 2670 nM
